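GI50 marks 50% less growth. TGI marks complete inhibition of growth.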
Tests used:
Test in all cases: NCI tumour cell line growth inhibition, 384-well format
ACHN renal = tested on: ACHN renal
CCRF-CEM leukemia = tested on: CCRF-CEM leukemia
HT29 colon = tested on: HT29 colon
M14 melanoma = tested on: M14 melanoma
NCI-H23 lung = tested on: NCI-H23 lung
OVCAR-4 ovarian = tested on: OVCAR-4 ovarian
CAKI-1 renal = tested on: CAKI-1 renal
A549 NSCLC = tested on: A549 NSCLC
SNB-19 CNS = tested on: SNB-19 CNS
HOP-62 NSCLC = tested on: HOP-62 NSCLC
SW-620 colon = tested on: SW-620 colon
OVCAR-3 ovarian = tested on: OVCAR-3 ovarian
A498 renal = tested on: A498 renal

O=C(/C=C/c1cccc(S(=O)(=O)Nc2ccccc2)c1)NO
GI50 (ACHN renal): 493 nM
TGI (ACHN renal): 1540 nM
GI50 (CCRF-CEM leukemia): 134 nM
TGI (CCRF-CEM leukemia): 263 nM
GI50 (HT29 colon): 282 nM
TGI (HT29 colon): 918 nM
GI50 (M14 melanoma): 537 nM
TGI (M14 melanoma): 2140 nM
GI50 (NCI-H23 lung): 407 nM
TGI (NCI-H23 lung): 1590 nM
GI50 (OVCAR-4 ovarian): 1880 nM
TGI (OVCAR-4 ovarian): 5860 nM
GI50 (CAKI-1 renal): 218 nM
TGI (CAKI-1 renal): 885 nM
GI50 (A549 NSCLC): 422 nM
TGI (A549 NSCLC): 1590 nM
GI50 (SNB-19 CNS): 853 nM
TGI (SNB-19 CNS): 2240 nM
GI50 (HOP-62 NSCLC): 498 nM
TGI (HOP-62 NSCLC): 2330 nM
GI50 (SW-620 colon): 188 nM
TGI (SW-620 colon): 436 nM
GI50 (OVCAR-3 ovarian): 299 nM
TGI (OVCAR-3 ovarian): 1280 nM
GI50 (A498 renal): 494 nM
TGI (A498 renal): 1450 nM

— PubChem BioAssay (NCI)
